# Laboratory results published in patent US10065967B2, “Compounds that are ERK inhibitors” (Merck Sharp & Dohme Corp., priority 2013, dated 2018).
# Target: Active Mouse ERK2 (mERK2) (Mus musculus (Mouse), UniProt P63085)
# Assay: Active Mouse ERK2 (mERK2) Activity Assay (IMAP-FP)
# Type: biochemical
# Details: phosphorylated active mERK2 0.19 nM, 30 uM ATP, 10 point titration, read-out: ERK 2 MAPK1 Mouse IC50
# Method: Active Mouse ERK2 (mERK2) Activity Assay:
# (§1) Activated ERK2 activity was determined in an IMAP-FP assay (Molecular Devices). Using this assay format, the potency (IC50) of each compound was determined from a 10 point (1:3 serial dilution, 3 μM starting compound concentration) titration curve using the following outlined procedure. To each well of a black Corning 384-well plate (Corning Catalog #3575), 7.5 nL of compound (3333 fold dilution in final assay volume of 25 μL) was dispensed, followed by the addition of 15 μL of kinase buffer (tween containing kinase buffer, Molecular Devices) containing 0.0133 ng/mL (0.316 nM) of phosphorylated active mERK2 enzyme. Following a 15 minute compound & enzyme incubation, each reaction was initiated by the addition of 10 μL kinase buffer containing 2.45 μM ERK2 IMAP substrate peptides (2.25 μM-unlabeled peptide and 200 nM-labeled peptide, and 75 μM ATP. The final reaction in each well of 25 μL consists of 0.19 nM mERK2, 900 nM unlabeled peptide, 80 nM labeled-peptide, and 30 uM ATP. Phosphorylation reactions were allowed to proceed for 45 minutes and were immediately quenched by the addition of 60 μL IMAP detection beads (1:1000 dilutions) in IMAP binding buffer (Molecular Devices) with 24 mM NaCl. Plates were read on EnVision reader after 60 minutes binding equilibration using Fluorescence Polarization protocol (Perkin Elmer).
# Active Mouse ERK2 (mERK2), sequence (P63085 whole entry): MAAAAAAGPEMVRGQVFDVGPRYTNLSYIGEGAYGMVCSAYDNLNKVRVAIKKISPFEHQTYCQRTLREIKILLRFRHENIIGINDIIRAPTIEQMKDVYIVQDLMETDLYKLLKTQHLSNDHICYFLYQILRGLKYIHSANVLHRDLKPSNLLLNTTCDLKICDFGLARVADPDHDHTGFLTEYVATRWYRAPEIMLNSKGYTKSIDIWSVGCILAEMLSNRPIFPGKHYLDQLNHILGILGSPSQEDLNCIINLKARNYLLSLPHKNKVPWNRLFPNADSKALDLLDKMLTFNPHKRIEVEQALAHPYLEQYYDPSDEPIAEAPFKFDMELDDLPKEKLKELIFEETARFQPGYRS
row,SMILES,IC50 [nM]
1,"Cc1cc(-c2n[nH]c3cc4[nH]c(=O)ccc4cc23)ccn1 [Example 1, 3-(2-methylpyridin-4-yl)-1,8-dihydro-7H-pyrazolo[4,3-g]quinolin-7-one]",0.4
2,"Cc1cc(-c2n[nH]c3cc4[nH]c(=O)c(Br)cc4cc23)ccn1 [Example 2, 6-bromo-3-(2-methylpyridin-4-yl)-1,8-dihydro-7H-pyrazolo[4,3-g]quinolin-7-one]",0.2
3,"Cc1cc(-c2n[nH]c3cc4[nH]c(=O)c(Cc5ccccc5)cc4cc23)ccn1 [Example 3, 6-benzyl-3-(2-methylpyridin-4-yl)-1,8-dihydro-7H-pyrazolo[4,3-g]quinolin-7-one]",0.2

# Target: Active Human ERK2 (hERK2) (Homo sapiens (Human), UniProt P28482)
# Sequence (P28482 whole entry): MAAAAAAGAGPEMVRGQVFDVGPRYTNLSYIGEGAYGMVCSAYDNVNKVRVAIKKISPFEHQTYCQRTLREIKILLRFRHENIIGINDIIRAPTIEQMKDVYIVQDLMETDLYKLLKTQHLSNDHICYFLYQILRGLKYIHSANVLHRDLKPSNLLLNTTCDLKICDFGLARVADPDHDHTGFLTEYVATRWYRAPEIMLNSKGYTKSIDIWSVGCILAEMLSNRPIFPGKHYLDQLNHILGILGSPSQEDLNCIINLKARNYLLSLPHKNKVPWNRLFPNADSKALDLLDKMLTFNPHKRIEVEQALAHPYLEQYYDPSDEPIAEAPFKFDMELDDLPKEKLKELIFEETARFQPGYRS
# Assay: Active Human ERK2 (hERK2) Activity Assay (IMAP-FP)
# Type: biochemical
# Details: phosphorylated active hERK2 0.5 nM, 30 μM ATP, 10 point titration, read-out: ERK 2 Human average IC50
# Method: Assays Active Human ERK2 (hERK2) Activity Assay:
# as §1, with “procedure. […]” for “procedure. To each well of a black Corning 384-well plate (Corning Catalog #3575), 7.5 nL of compound (3333 fold dilution in final assay volume of 25 μL) was dispensed, followed by the addition of 15 μL of kinase buffer (tween containing kinase buffer, Molecular Devices) containing 0.0133 ng/mL (0.316 nM) of phosphorylated active mERK2 enzyme.”, “of 0.5” for “of 0.19”, “nM hERK2,” for “nM mERK2,”, “30 μM” for “30 uM”, “for 60” for “for 45”
row,SMILES,IC50 [nM]
1,"C[C@H](c1ccccc1)N1Cc2cc3c(OC4CCOCC4)n[nH]c3cc2NC1=O [Example 39, (R)-6-(1-phenylethyl)-3-((tetrahydro-2H-pyran-4-yl)oxy)-5,6-dihydro-1H-pyrazolo[4,3-g]quinazolin-7(8H)-one]",10
2,"C[C@H](c1ccccc1)N1Cc2cc3c(C4CC4)n[nH]c3cc2NC1=O [Example 40, (R)-3-cyclopropyl-6-(1-phenylethyl)-5,6-dihydro-1H-pyrazolo[4,3-g]quinazolin-7(8H)-one]",24
3,"C[C@H](c1ccccc1)N1Cc2cc3c(-c4ccnc(F)c4)n[nH]c3cc2NC1=O [Example 41, (R)-3-(2-fluoropyridin-4-yl)-6-(1-phenylethyl)-5,6-dihydro-1H-pyrazolo[4,3-g]quinazolin-7(8H)-one]",0.3
4,"C[C@H](c1ccccc1)N1Cc2cc3c(N4CCOCC4)n[nH]c3cc2NC1=O [Example 42, (R)-3-morpholino-6-(1-phenylethyl)-5,6-dihydro-1H-pyrazolo[4,3-g]quinazolin-7(8H)-one]",9
5,"C[C@H](c1ccccc1)N1Cc2cc3c(I)n[nH]c3cc2NC1=O [Example 43, (R)-3-iodo-6-(1-phenylethyl)-5,6-dihydro-1H-pyrazolo[4,3-g]quinazolin-7(8H)-one]",48
6,"C[C@H](c1ccccc1)N1Cc2cc3c(N4CCc5ncsc5C4)n[nH]c3cc2NC1=O [Example 47, (R)-3-(6,7-dihydrothiazolo[5,4-c]pyridin-5(4H)-yl)-6-(1-phenylethyl)-5,6-dihydro-1H-pyrazolo[4,3-g]quinazolin-7(8H)-one]",24
